tested on: CCI rats (thermal hyperalgesia); test: Test C: Neuropathic pain model (Chronic Constriction Injury), thermal hyperalgesia paw-withdrawal test; assay type: in vivo, rat; conditions: oral, at the MED, compared to vehicle-treated animals
Excerpt: Test C: Neuropathic Pain Model (Chronic Constriction Injury): […]

In the case of Cc1ccsc1Cn1nc(O)c2[nH]c3cc(Cl)ccc3c(=O)c2c1=O [Ex. 2, 7-Chloro-4-hydroxy-2-[2-(3-methyl)thienylmethyl]-1,2,5,10-tetrahydropyridazino[4,5-b]quinoline-1,10-dione], the “Test C % Inh. (percent decrease of hyperalgesia) at MED” value is reported as −15%.

same assay, conditions: oral, three times daily for 5 days, dose giving statistically significant decrease in hyperalgesia

Cc1ccsc1Cn1nc(O)c2[nH]c3cc(Cl)ccc3c(=O)c2c1=O [Ex. 2, 7-Chloro-4-hydroxy-2-[2-(3-methyl)thienylmethyl]-1,2,5,10-tetrahydropyridazino[4,5-b]quinoline-1,10-dione] was tested, and the “Test C MED (minimum effective dose)” value was 30 mg/kg/day.

molecular target: T1, NMDA receptor glycine site (Rattus norvegicus, UniProt P35439); test: Test A: Inhibition of binding of [3H]-MDL105,519 to brain membranes; conditions: displacement of 1.2 nM [3H]MDL105,519, brain membranes
T1 construct: The rat brain membranes used in the experiments were obtained from Analytical Biological Services Inc; tissue Analytical Biological Services Inc; host or cells: rat brain membranes (cerebral cortex and hippocampus, male Sprague Dawley rats)
Excerpt: Test A: Inhibition of Binding of [^3H]-MDL105,519:
Binding of compounds to the NMDA receptor glycine site may be assessed by measuring the ability of test compounds to inhibit the binding of tritiated MDL105,519 to brain membranes bearing the receptor.
Briefly, fresh brain tissue including cerebral cortex and hippocampus from male Sprague Dawley rats was homogenized in 0.32 M sucrose and centrifuged at low speed to separate cellular membranes from other cellular components. The membranes were then washed 3 times using deionized water, followed by treatment with 0.04% Triton X-100. Finally, membranes were washed six times in 50 mM Tris citrate buffer, pH 7.4, and frozen at −80° C. until use.
[^3H]MDL105,519 (72 Ci/mmol) was purchased from Amersham. Cold MDL105,519 was purchased from Sigma/RBI. Binding assays were performed substantially in accordance with the protocol of B. M. Baron et al., J. Phannacol. […] On the day of the experiment, brain membranes were thawed at room temperature and suspended in 50 mM tris acetate buffer, pH 7.4 (“TAB”). Seventy-five micro grams per milliliter protein (by using the BioRad dye) were used for competition binding. The experiments were carried out using 96-well plates. […] Non specific binding was determined by using 100 μM of unlabeled MDL105,519. […] After incubation, unbound [^3H]MDL105,519 was removed by filtration onto GF/B Unifilter plates using a Packard harvester. Filters were washed four times with ice cold TAB (total of 1.2 mL buffer). The plates were dried overnight at room temperature and bound radioactivity was measured on a Packard TopCount after the addition of 45 μL per well of the MICROSCINT O.
Human Brain Membranes: Human brain membranes were obtained from Analytical Biological Services Inc., and assays were performed as described for rat membranes.
Data analysis: Data was analyzed using a Microsoft Excel spreadsheet and GraphPad Prizm software and potency of compounds is expressed as the Ki (nM).

First: Cc1c(Cn2nc(O)c3[nH]c4cc(Cl)ccc4c(=O)c3c2=O)sc2ccccc12
Second: Cc1ccc(Cn2nc(O)c3[nH]c4cc(Cl)ccc4c(=O)c3c2=O)s1 [Ex. 9, 7-Chloro-4-hydroxy-2-(5-methylthien-2-ylmethyl)-1,2,5,10-tetrahydropyridazino[4,5-b]quinoline-1,10-dione]
The Ki of the first is 5.8-fold higher: 161 nM for the first, 28 nM for the second.

Going from Cc1[nH]cnc1Cn1nc(O)c2nc3cc(Cl)ccc3c(O)c2c1=O to Cc1occc1Cn1nc(O)c2[nH]c3cc(Cl)ccc3c(=O)c2c1=O [Ex. 4, 7-Chloro-4-hydroxy-2-[(2-methyl(furan-3-yl))methyl]-1,2,5,10-tetrahydropyridazinol[4,5-b]quinonline-1,10-dione], the Ki falls from 434 nM to 28 nM (16-fold). The second binds more tightly here.

First: Cc1cc(Cn2nc(O)c3[nH]c4cc(Cl)ccc4c(=O)c3c2=O)c(C)o1 [Ex. 1, 7-Chloro-4-hydroxy-2-[3-(2,5-dimethyl)furanylmethyl]-1,2,5,10-tetrahydropyridazino[4,5-b]quinoline-1,10-dione]
Second: COC(=O)c1ccc(Cn2nc(O)c3[nH]c4cc(Cl)ccc4c(=O)c3c2=O)o1 [Ex. 8, 7-Chloro-4-hydroxy-2-(5-methoxycarbonyl(furan-2-yl)methyl)-1,2,5,10-tetrahydropyirdazino[4,5-b]quinolin-1,10-dione]
The Ki of the first is 2.9-fold lower: 24.8 nM for the first, 72 nM for the second.

With O=c1c2ccc(Cl)cc2[nH]c2c(O)nn(Cc3ccc(-c4ccccc4Cl)o3)c(=O)c12 [Ex. 6, 7-Chloro-4-hydroxy-2-{[5-(2-chlorophenyl)(2-furyl)]methyl}-1,2,5,10-tetrahydropyridazino[4,5-b]quinoline-1,2-dione] the Ki was 298 nM.
